One test has as its target Acetylcholinesterase (Electrophorus electricus, UniProt O42275). Nature of the test: Inhibition of electric eel AChE by Ellman's colorimetry. On the technique in general: Ellman's reagent forms a yellow product with free thiols.
The next test has as its system Ralstonia solanacearum. In words: Antibacterial activity against Ralstonia solanacearum assessed as reduction in bacterial cell growth incubated for 24 hrs by filter paper assay. Format: functional.
A further test deals with Candida tropicalis. In words: Antifungal activity against Candida tropicalis assessed as reduction in fungal cell growth incubated for 48 hrs by serial dilution method. It counts as functional.
For another test, the system named is Escherichia coli. Nature of the test: Antibacterial activity against Escherichia coli assessed as reduction in bacterial cell growth incubated for 24 hrs by filter paper assay. It counts as functional.
A further test concerns Cryptococcus neoformans. Nature of the test: Antifungal activity against Cryptococcus neoformans assessed as reduction in fungal cell growth incubated for 48 hrs by serial dilution method. Format: functional.
The subject of the next test is Pseudomonas aeruginosa. Nature of the test: Antibacterial activity against Pseudomonas aeruginosa assessed as reduction in bacterial cell growth incubated for 24 hrs by filter paper assay. Format: functional.
A further test concerns Aspergillus flavus. In words: Antifungal activity against Aspergillus flavus assessed as reduction in fungal cell growth incubated for 48 hrs by serial dilution method. Format: functional.
A further test concerns Verticillium dahliae. In words: Antifungal activity against Verticillium dahliae assessed as reduction in fungal cell growth incubated for 48 hrs by serial dilution method. It counts as functional.
Test [1] has as its system Fusarium oxysporum f. sp. vasinfectum. In words: Antifungal activity against Fusarium oxysporum sp. vasinfectum assessed as reduction in fungal cell growth incubated for 48 hrs by serial dilution method. It counts as functional.
For the next test, the system named is Candida. Nature of the test: Antifungal activity against […] assessed as reduction in fungal cell growth incubated for 48 hrs by serial dilution method. Format: functional.
The next test has as its system Curvularia lunata. In words: Antifungal activity against Curvularia lunata assessed as reduction in fungal cell growth incubated for 48 hrs by serial dilution method. Format: functional.
Test [2] relates to Colletotrichum orbiculare. Nature of the test: Antifungal activity against Colletotrichum orbiculare assessed as reduction in fungal cell growth incubated for 48 hrs by serial dilution method. Format: functional.
The test system of a further test is Bacillus cereus. In words: Antibacterial activity against Bacillus cereus assessed as reduction in bacterial cell growth incubated for 24 hrs by filter paper assay. Format: functional.
The subject of another test is Penicillium citrinum. Nature of the test: Antifungal activity against Penicillium citrinum assessed as reduction in fungal cell growth incubated for 48 hrs by serial dilution method. Format: functional.
Another test relates to Cytospora. In words: Antifungal activity against Cytospora juglandis assessed as reduction in fungal cell growth incubated for 48 hrs by serial dilution method. Format: functional.
The test system of a further test is Fusarium oxysporum. In words: Antifungal activity against Fusarium oxysporum assessed as reduction in fungal cell growth incubated for 48 hrs by serial dilution method. It counts as functional.
The test system of another test is Staphylococcus aureus. In words: Antibacterial activity against Staphylococcus aureus assessed as reduction in bacterial cell growth incubated for 24 hrs by filter paper assay. It counts as functional.
Another test concerns Aspergillus niger. In words: Antifungal activity against Aspergillus niger assessed as reduction in fungal cell growth incubated for 48 hrs by serial dilution method. It counts as functional.

This is an account of results in ChEMBL document CHEMBL4304804, “Synthesis and biological evaluation of calycanthaceous alkaloid analogs” (Bioorg Med Chem, 2019).

≈ marks a conversion by molar mass, not a printed value. Calls of active or inactive are those of the source. No cut-off for these calls is given here.

Acetylcholinesterase, sequence (O42275 whole entry): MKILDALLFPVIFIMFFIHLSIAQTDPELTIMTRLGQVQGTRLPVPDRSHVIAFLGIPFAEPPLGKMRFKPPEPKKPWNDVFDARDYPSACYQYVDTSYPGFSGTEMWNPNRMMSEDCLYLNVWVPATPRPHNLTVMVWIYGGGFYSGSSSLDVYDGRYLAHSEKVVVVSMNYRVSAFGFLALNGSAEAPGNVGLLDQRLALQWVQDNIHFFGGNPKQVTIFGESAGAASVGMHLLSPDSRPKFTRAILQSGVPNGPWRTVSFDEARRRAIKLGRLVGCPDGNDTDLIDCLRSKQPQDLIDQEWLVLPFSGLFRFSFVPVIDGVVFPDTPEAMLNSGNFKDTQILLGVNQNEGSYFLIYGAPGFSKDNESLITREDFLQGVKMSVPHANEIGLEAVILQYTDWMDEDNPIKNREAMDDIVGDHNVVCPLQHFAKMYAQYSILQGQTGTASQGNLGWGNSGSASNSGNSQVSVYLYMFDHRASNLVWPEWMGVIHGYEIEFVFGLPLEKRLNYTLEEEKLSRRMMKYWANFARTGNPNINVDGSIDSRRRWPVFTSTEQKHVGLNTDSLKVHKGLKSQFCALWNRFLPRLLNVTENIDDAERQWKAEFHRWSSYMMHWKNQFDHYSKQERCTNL

What is called IC50 is the point on the concentration scale where inhibition reaches its midpoint. Read a high IC50 as a need for much substance. A word on the MIC: it is the least concentration at which growth counts as inhibited. Molecule `CCCC(=O)N1CCC2(Cc3cccc(C)c3)c3ccccc3N(Cc3cccc(C)c3)C12` (stereo not drawn) showed an IC50 against Acetylcholinesterase of 6.52 µM. Also, the MIC worked out at 250 µg/mL (≈ 570 µM) with Ralstonia solanacearum; 125 µg/mL (≈ 285 µM) with Candida tropicalis; 250 µg/mL (≈ 570 µM) in the test with Escherichia coli; 250 µg/mL (≈ 570 µM) in the test with Pseudomonas aeruginosa; 250 µg/mL (≈ 570 µM) in the test on Aspergillus flavus; 62.5 µg/mL (≈ 142 µM) in the test with Verticillium dahliae. The MIC was found to be 250 µg/mL (≈ 570 µM) in the test with Candida; 250 µg/mL (≈ 570 µM) in test [2]; 250 µg/mL (≈ 570 µM) with Bacillus cereus; 62.5 µg/mL (≈ 142 µM) in the test on Cytospora; 125 µg/mL (≈ 285 µM) in the test with Fusarium oxysporum; 250 µg/mL (≈ 570 µM) in the test on Staphylococcus aureus. Besides, in the test on Aspergillus niger, the MIC turned out to be 125 µg/mL (≈ 285 µM). Further, the MIC result (in the test on Cryptococcus neoformans; in test [1]; in the test with Curvularia lunata; in the test with Penicillium citrinum) was “inactive” each time.

`CCCCC(=O)N1CCC2(Cc3ccccc3C)c3ccccc3N(Cc3ccccc3C)C12` (stereo not drawn) had an IC50 against Acetylcholinesterase of 328 µM. Moreover, the MIC with Ralstonia solanacearum came to 250 µg/mL (≈ 552 µM); in the test on Candida tropicalis, 125 µg/mL (≈ 276 µM); in the test on Escherichia coli it was 250 µg/mL (≈ 552 µM); with Pseudomonas aeruginosa, 250 µg/mL (≈ 552 µM); in the test on Aspergillus flavus it was 250 µg/mL (≈ 552 µM); in the test with Verticillium dahliae it was 31.2 µg/mL (≈ 69 µM). Moreover, the MIC in the test on Candida stood at 250 µg/mL (≈ 552 µM); in the test with Bacillus cereus it was 250 µg/mL (≈ 552 µM); with Penicillium citrinum it was 250 µg/mL (≈ 552 µM); in the test on Cytospora, 250 µg/mL (≈ 552 µM); with Fusarium oxysporum it was 125 µg/mL (≈ 276 µM); in the test on Staphylococcus aureus it was 250 µg/mL (≈ 552 µM). Besides, in the test on Aspergillus niger, the MIC was determined as 250 µg/mL (≈ 552 µM). Further, the MIC result (with Cryptococcus neoformans; in test [1]; in the test on Curvularia lunata; in test [2]) was “inactive” each time.

On to `COC(=O)Nc1nc2ccccc2[nH]1` [CARBENDAZIM], for which the MIC in the test on Aspergillus flavus stood at 7.81 µg/mL (≈ 40.8 µM); with Verticillium dahliae, 7.81 µg/mL (≈ 40.8 µM); in test [1], 62.5 µg/mL (≈ 327 µM); with Curvularia lunata it was 250 µg/mL (≈ 1310 µM); in test [2], 125 µg/mL (≈ 654 µM); in the test with Penicillium citrinum it was 1.96 µg/mL (≈ 10.3 µM). In addition, the MIC came to 31.2 µg/mL (≈ 163 µM) in the test on Cytospora and 125 µg/mL (≈ 654 µM) in the test on Fusarium oxysporum. Moreover, the MIC entry with Aspergillus niger is “inactive”.

Molecule `Cc1ccccc1CN1c2ccccc2C2(Cc3ccccc3C)CCN(C(=O)COc3ccccc3)C12` (stereo not drawn) gave a half-inhibitory concentration (IC50) against Acetylcholinesterase of 787 µM. Moreover, the MIC entry (in the test on Ralstonia solanacearum; with Escherichia coli; with Cryptococcus neoformans; in the test with Pseudomonas aeruginosa; in test [1]; with Curvularia lunata) was “inactive” throughout. For the same molecule, the MIC result in the test on Staphylococcus aureus is “inactive”. Moreover, the MIC (in the test on Candida tropicalis; with Aspergillus flavus; in the test on Verticillium dahliae; in the test on Candida; in test [2]; with Bacillus cereus) was 250 µg/mL (≈ 497 µM) each time. Moreover, the MIC in the test on Penicillium citrinum amounted to 125 µg/mL (≈ 249 µM); in the test with Cytospora, 250 µg/mL (≈ 497 µM); with Fusarium oxysporum it was 250 µg/mL (≈ 497 µM); in the test with Aspergillus niger, 250 µg/mL (≈ 497 µM).

Molecule `Cc1cccc(CN2c3ccccc3C3(Cc4cccc(C)c4)CCN(C(=O)C(F)(F)F)C23)c1` (stereo not drawn) gave a 50% inhibitory concentration (IC50) on Acetylcholinesterase of 3.38 µM. Further, the MIC entry in the test on Ralstonia solanacearum, in the test with Candida tropicalis, in the test with Escherichia coli, with Cryptococcus neoformans, with Pseudomonas aeruginosa and with Verticillium dahliae was “inactive” in each case. Also, the MIC entry (in test [1]; in the test on Candida; with Curvularia lunata; in test [2]; in the test on Bacillus cereus; with Penicillium citrinum) was “inactive” each time. The MIC result in the test on Staphylococcus aureus and with Aspergillus niger was “inactive” throughout. In addition, the MIC in the test with Aspergillus flavus, in the test on Cytospora and in the test on Fusarium oxysporum was 250 µg/mL (≈ 538 µM) in each case.

`CCCCCC(=O)N1CCC2(Cc3ccccc3C)c3ccccc3N(Cc3ccccc3C)C12` (stereo not drawn) showed an IC50 against Acetylcholinesterase of 217 µM. Besides, the minimal inhibitory concentration (MIC) in the test on Ralstonia solanacearum came out at 250 µg/mL (≈ 536 µM); in the test with Pseudomonas aeruginosa, 125 µg/mL (≈ 268 µM); in the test with Aspergillus flavus, 250 µg/mL (≈ 536 µM); in the test on Verticillium dahliae, 62.5 µg/mL (≈ 134 µM); in the test on Candida, 125 µg/mL (≈ 268 µM); in the test with Curvularia lunata, 125 µg/mL (≈ 268 µM). Besides, the MIC is 250 µg/mL (≈ 536 µM) in test [2]; 250 µg/mL (≈ 536 µM) in the test with Penicillium citrinum; 125 µg/mL (≈ 268 µM) in the test with Cytospora; 125 µg/mL (≈ 268 µM) in the test with Fusarium oxysporum; 250 µg/mL (≈ 536 µM) in the test on Aspergillus niger. In addition, the MIC entry (with Candida tropicalis; in the test on Escherichia coli; in the test on Cryptococcus neoformans; in [1]; with Bacillus cereus; in the test with Staphylococcus aureus) was “inactive” in each case.

In the case of `Cc1cccc(C(=O)N2CCCC3(O)c4ccccc4N(C)C23)c1` (stereo not drawn), at Acetylcholinesterase, it took 5.52 µM to reach half-maximal inhibition (IC50). Besides, the MIC in the test on Ralstonia solanacearum was 62.5 µg/mL (≈ 194 µM); in the test on Candida tropicalis, 250 µg/mL (≈ 775 µM); in the test with Pseudomonas aeruginosa it was 250 µg/mL (≈ 775 µM); with Verticillium dahliae, 250 µg/mL (≈ 775 µM); with Staphylococcus aureus it was 250 µg/mL (≈ 775 µM). The MIC result (in the test on Escherichia coli; in the test with Cryptococcus neoformans; in the test on Aspergillus flavus; in test [1]; with Candida; with Curvularia lunata) was “inactive” throughout. Also, the MIC result (in test [2]; in the test on Bacillus cereus; in the test with Penicillium citrinum; with Cytospora; with Fusarium oxysporum; in the test on Aspergillus niger) was “inactive” each time.

On to `N#Cc1c(Cl)c(Cl)c(Cl)c(C#N)c1Cl` [CHLOROTHALONIL], for which the MIC in the test on Aspergillus flavus worked out at 7.81 µg/mL (≈ 29.4 µM); in the test with Verticillium dahliae, 31.2 µg/mL (≈ 118 µM); in test [1], 250 µg/mL (≈ 940 µM); in the test on Curvularia lunata it was 125 µg/mL (≈ 470 µM); in [2], 250 µg/mL (≈ 940 µM); with Penicillium citrinum, 15.6 µg/mL (≈ 58.8 µM). For the same molecule, the values for the MIC with Cytospora, in the test with Fusarium oxysporum and in the test with Aspergillus niger were 62.5 µg/mL (≈ 235 µM), 62.5 µg/mL (≈ 235 µM) and 15.6 µg/mL (≈ 58.8 µM), respectively.

Consider `OC(Cn1cncn1)(Cn1cncn1)c1ccc(F)cc1F` [FLUCONAZOLE], for which the MIC with Candida tropicalis was 250 µg/mL (≈ 816 µM); in the test on Candida it was 62.5 µg/mL (≈ 204 µM).

As to `CN[C@@H]1[C@H](O[C@H]2[C@H](O[C@H]3[C@H](O)[C@@H](O)[C@H](N=C(N)N)[C@@H](O)[C@@H]3N=C(N)N)O[C@@H](C)[C@]2(O)C=O)O[C@@H](CO)[C@H](O)[C@H]1O` [STREPTOMYCIN], the MIC in the test on Ralstonia solanacearum was determined as 250 µg/mL (≈ 430 µM); in the test with Escherichia coli, 31.2 µg/mL (≈ 53.7 µM). For the same molecule, the MIC result in the test with Pseudomonas aeruginosa was “inactive”.

With `CC1(C)S[C@@H]2[C@H](NC(=O)Cc3ccccc3)C(=O)N2[C@H]1C(=O)O` [PENICILLIN G], the minimal inhibitory concentration (MIC) with Bacillus cereus was found to be 7.81 µg/mL (≈ 23.4 µM); with Staphylococcus aureus, 15.6 µg/mL (≈ 46.7 µM).

Consider `C[C@@H]1[C@H](O)[C@@H](C)/C=C/C=C/C=C/C=C/C=C/C=C/C=C/[C@H](O[C@@H]2O[C@H](C)[C@@H](O)[C@H](N)[C@@H]2O)C[C@@H]2O[C@](O)(C[C@@H](O)C[C@@H](O)[C@H](O)CC[C@@H](O)C[C@@H](O)CC(=O)O[C@H]1C)C[C@H](O)[C@H]2C(=O)O` [AMPHOTERICIN B], for which the MIC with Cryptococcus neoformans is 1.96 µg/mL (≈ 2.12 µM); in the test on Candida, 250 µg/mL (≈ 271 µM).

Turning to GENTAMICIN, the MIC in the test on Ralstonia solanacearum is 62.5 µg/mL; with Escherichia coli, 1.96 µg/mL; with Pseudomonas aeruginosa it was 1.96 µg/mL.
